The values that follow come from ChEMBL document CHEMBL4184197 (Bioorg Med Chem, 2018).

For data set [1], the system named is Salmonella typhimurium. In words: Mutagenicity in Salmonella typhimurium TA100 in absence of rat liver S9 fraction by Ames test. It counts as toxicity, organism-based. As to conditions: salmonella enterica subsp. enterica serovar typhimurium.
The target in data set [2] is Adenosine receptor A2a (Homo sapiens) (UniProt P29274). In words: Binding affinity to recombinant human A2A receptor at 10 uM after 120 mins by scintillation counting analysis relative to control.
Adenosine receptor A2a (Homo sapiens), sequence (P29274 whole entry): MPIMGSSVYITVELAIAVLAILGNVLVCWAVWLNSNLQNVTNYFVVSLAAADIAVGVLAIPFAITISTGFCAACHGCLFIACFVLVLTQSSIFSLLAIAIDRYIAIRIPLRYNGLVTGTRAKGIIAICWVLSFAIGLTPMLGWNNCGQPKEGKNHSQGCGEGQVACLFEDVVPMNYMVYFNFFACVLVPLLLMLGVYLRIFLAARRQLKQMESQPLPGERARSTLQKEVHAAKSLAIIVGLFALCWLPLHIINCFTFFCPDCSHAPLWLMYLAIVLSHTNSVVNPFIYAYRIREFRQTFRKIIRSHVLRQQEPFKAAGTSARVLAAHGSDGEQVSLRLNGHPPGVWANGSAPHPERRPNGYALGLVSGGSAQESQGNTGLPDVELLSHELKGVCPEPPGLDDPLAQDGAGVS
Data set [3] has as its target Adenosine receptor A3 (Homo sapiens) (UniProt P0DMS8). In words: Binding affinity to recombinant human A3 receptor at 10 uM after 120 mins by scintillation counting analysis relative to control.
For data set [4], the target named is Adrenergic receptor alpha-2 (Homo sapiens) (UniProt P08913+P18825+P18089). In words: Binding affinity to alpha2 receptor (unknown origin) at 10 uM relative to control. It counts as protein assay.
For data set [5], the target named is Beta-2 adrenergic receptor (Homo sapiens) (UniProt P07550). Description: Binding affinity to recombinant human beta 2 adrenoceptor at 10 uM after 120 mins by scintillation counting analysis relative to control.
Beta-2 adrenergic receptor (Homo sapiens), sequence (P07550 whole entry, looked up): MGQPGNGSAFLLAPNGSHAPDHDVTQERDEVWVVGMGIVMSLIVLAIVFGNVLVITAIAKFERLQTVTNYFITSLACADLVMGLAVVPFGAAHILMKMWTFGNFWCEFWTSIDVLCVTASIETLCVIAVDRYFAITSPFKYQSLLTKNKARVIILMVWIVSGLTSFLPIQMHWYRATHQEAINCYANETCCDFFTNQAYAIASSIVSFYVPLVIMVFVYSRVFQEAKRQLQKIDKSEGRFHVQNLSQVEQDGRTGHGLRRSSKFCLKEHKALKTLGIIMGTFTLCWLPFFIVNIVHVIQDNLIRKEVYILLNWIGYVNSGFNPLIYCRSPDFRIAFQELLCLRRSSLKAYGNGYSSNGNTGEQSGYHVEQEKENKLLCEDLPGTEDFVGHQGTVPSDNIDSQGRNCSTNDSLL
Data set [6] concerns the target D(1B) dopamine receptor (Homo sapiens) (UniProt P21918). Description: Binding affinity to recombinant human dopamine receptor D5 at 10 uM after 60 mins by scintillation counting analysis relative to control.
Data set [7] has as its target Galanin receptor type 2 (Homo sapiens) (UniProt O43603). In words: Binding affinity to recombinant human GAL2 receptor at 10 uM after 120 mins by scintillation counting analysis relative to control.
Data set [8] addresses C-X-C chemokine receptor type 2 (Homo sapiens) (UniProt P25025). Description: Binding affinity to recombinant human CXCR2 receptor at 10 uM after 60 mins by scintillation counting analysis relative to control.
Data set [9] has as its target 5-hydroxytryptamine receptor 1A (Homo sapiens) (UniProt P08908). In words: Binding affinity to recombinant human 5-HT1A receptor at 10 uM after 60 mins by scintillation counting analysis relative to control.
Data set [10] has as its target Somatostatin receptor (Homo sapiens) (UniProt P35346+P30874+P31391+P30872+P32745). Description: Binding affinity to somatostatin receptor (unknown origin) at 10 uM relative to control. It counts as protein assay.
In data set [11] the target is Sodium-dependent noradrenaline transporter (Homo sapiens) (UniProt P23975). In words: Binding affinity to norepinephrine transporter (unknown origin) at 10 uM relative to control.
Data set [12] has as its target Polyunsaturated fatty acid 5-lipoxygenase (Homo sapiens) (UniProt P09917). In words: Binding affinity to recombinant human 5-LOX at 10 uM after 90 mins by fluorescence assay relative to control.
Data set [13] deals with Angiotensin-converting enzyme (Homo sapiens) (UniProt P12821). Description: Binding affinity to ACE (unknown origin) at 10 uM relative to control.
Angiotensin-converting enzyme (Homo sapiens), sequence (P12821 whole entry): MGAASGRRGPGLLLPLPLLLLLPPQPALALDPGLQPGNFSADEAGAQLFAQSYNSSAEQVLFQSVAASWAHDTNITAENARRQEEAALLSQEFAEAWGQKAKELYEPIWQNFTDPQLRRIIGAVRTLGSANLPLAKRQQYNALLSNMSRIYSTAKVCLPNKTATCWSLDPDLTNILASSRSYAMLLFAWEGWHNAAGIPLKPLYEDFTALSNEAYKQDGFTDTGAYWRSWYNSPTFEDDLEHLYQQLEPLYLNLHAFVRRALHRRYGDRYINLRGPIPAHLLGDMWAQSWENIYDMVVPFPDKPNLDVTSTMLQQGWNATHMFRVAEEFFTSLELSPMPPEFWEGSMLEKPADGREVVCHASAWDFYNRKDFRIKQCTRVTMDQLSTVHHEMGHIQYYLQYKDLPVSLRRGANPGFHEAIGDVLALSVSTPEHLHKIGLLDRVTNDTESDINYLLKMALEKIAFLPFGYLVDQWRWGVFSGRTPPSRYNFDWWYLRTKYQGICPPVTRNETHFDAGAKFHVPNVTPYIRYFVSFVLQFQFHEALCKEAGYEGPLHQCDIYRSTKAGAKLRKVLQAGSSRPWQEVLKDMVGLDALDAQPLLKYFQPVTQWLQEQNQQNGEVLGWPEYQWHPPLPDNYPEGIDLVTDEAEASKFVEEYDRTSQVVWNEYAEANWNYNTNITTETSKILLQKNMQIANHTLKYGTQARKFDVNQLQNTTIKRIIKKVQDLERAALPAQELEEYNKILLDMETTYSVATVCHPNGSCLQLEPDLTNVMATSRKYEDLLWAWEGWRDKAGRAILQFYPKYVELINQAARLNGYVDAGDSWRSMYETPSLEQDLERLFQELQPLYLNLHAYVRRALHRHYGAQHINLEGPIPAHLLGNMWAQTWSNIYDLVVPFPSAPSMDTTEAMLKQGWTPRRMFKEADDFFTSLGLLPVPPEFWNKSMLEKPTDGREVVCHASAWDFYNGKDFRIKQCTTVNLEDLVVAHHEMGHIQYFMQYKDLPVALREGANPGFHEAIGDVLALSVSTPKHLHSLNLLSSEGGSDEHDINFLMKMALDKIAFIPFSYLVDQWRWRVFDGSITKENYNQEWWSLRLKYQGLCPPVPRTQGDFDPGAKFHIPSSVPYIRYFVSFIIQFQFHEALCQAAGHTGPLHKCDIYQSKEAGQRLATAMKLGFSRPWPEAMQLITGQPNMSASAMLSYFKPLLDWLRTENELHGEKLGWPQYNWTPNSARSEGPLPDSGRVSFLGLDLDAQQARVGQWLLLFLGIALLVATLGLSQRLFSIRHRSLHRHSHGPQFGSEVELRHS
Data set [14] concerns the target Beta-secretase 2 (Homo sapiens) (UniProt Q9Y5Z0). Description: Binding affinity to BACE-2 (unknown origin) at 10 uM relative to control.
Data set [15] has as its target Interstitial collagenase (Homo sapiens) (UniProt P03956). In words: Binding affinity to human MMP1 at 10 uM after 20 mins by fluorescence assay relative to control.
Data set [16] deals with Procathepsin L (Homo sapiens) (UniProt P07711). Description: Binding affinity to human cathepsin L at 10 uM after 30 mins by fluorescence assay relative to control.
In data set [17] the target is Tryptase (Homo sapiens) (UniProt Q9BZJ3+Q15661+Q9NRR2). In words: Binding affinity to human tryptase at 10 uM after 8 mins by spectrophotometric analysis relative to control. It counts as protein assay.
Data set [18] concerns the target MAO-B (amine oxidase [flavin-containing] B) (Homo sapiens, UniProt P27338). In words: Binding affinity to recombinant human MAO-B at 10 uM after 60 mins by luminescence analysis relative to control. As to conditions: read-out: Activity.
Data set [19] has as its target Kinesin-like protein KIF11 (Homo sapiens) (UniProt P52732). In words: Binding affinity to recombinant human EG5 at 10 uM after 10 mins by spectrophotometric analysis relative to control.

SMILES strings stand for the structures. Where only a bound is given, the exact number is not on record here.

Adenosine receptor A3 (Homo sapiens), sequence (P0DMS8 whole entry): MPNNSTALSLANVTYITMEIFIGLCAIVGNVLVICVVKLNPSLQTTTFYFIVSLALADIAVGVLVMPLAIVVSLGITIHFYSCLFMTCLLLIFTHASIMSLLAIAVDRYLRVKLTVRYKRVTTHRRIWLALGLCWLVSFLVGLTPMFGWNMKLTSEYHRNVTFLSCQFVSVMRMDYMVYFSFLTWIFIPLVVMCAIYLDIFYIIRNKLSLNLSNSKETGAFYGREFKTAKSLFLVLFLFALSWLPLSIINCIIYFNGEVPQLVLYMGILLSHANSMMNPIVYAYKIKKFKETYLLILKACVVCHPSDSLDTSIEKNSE
Polyunsaturated fatty acid 5-lipoxygenase (Homo sapiens), sequence (P09917 whole entry): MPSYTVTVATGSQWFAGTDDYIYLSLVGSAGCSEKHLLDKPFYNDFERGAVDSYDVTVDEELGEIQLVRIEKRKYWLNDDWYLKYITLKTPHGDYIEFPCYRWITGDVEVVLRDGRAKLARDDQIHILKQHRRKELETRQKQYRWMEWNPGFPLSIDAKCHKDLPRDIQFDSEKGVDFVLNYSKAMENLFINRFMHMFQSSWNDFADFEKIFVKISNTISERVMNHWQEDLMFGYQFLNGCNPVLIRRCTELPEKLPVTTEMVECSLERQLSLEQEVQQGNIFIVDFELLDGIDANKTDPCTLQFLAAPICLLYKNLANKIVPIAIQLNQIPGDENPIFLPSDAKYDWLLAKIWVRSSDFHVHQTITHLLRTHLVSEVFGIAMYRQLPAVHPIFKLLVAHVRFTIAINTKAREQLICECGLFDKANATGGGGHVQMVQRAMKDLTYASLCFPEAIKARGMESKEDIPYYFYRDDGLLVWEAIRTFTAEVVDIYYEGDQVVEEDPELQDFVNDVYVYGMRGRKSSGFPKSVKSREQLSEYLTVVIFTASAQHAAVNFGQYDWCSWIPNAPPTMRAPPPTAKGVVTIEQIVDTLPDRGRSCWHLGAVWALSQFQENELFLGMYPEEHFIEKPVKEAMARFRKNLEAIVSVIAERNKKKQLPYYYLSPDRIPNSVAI
D(1B) dopamine receptor (Homo sapiens), sequence (P21918 whole entry): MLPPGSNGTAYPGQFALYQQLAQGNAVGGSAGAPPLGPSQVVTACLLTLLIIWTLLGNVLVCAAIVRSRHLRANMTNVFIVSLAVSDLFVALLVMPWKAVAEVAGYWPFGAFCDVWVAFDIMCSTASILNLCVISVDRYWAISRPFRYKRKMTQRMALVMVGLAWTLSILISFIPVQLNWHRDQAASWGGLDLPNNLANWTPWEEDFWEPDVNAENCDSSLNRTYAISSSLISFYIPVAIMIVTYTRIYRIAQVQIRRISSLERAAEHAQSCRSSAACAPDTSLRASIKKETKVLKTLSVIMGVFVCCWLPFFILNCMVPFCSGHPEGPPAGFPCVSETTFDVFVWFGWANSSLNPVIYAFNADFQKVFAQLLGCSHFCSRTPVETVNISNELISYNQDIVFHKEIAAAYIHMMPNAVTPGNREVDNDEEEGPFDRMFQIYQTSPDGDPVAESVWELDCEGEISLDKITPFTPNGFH
5-hydroxytryptamine receptor 1A (Homo sapiens), sequence (P08908 whole entry): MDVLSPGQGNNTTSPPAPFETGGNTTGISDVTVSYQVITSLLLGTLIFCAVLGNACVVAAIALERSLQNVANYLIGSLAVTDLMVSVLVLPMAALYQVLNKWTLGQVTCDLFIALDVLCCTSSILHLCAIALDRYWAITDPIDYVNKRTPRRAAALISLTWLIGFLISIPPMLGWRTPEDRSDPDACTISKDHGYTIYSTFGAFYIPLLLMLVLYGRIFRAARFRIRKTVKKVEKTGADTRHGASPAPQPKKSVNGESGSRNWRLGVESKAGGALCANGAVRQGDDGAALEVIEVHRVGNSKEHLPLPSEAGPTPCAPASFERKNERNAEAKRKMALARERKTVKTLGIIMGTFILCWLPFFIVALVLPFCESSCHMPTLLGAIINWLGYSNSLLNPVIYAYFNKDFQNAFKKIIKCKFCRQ
Beta-secretase 2 (Homo sapiens), sequence (Q9Y5Z0 whole entry): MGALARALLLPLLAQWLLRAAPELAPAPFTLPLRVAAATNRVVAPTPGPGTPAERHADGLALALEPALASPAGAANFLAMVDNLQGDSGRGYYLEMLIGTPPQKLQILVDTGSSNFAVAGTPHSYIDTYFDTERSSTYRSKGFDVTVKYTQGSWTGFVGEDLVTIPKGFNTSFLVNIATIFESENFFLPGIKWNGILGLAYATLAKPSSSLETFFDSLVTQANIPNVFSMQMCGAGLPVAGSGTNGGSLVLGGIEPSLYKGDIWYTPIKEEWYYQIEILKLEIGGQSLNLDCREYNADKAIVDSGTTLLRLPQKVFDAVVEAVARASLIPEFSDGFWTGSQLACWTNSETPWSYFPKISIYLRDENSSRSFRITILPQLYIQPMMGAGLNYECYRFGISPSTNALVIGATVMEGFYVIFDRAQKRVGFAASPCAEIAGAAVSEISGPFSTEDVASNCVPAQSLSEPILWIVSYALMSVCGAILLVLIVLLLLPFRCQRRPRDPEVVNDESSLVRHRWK
C-X-C chemokine receptor type 2 (Homo sapiens), sequence (P25025 whole entry): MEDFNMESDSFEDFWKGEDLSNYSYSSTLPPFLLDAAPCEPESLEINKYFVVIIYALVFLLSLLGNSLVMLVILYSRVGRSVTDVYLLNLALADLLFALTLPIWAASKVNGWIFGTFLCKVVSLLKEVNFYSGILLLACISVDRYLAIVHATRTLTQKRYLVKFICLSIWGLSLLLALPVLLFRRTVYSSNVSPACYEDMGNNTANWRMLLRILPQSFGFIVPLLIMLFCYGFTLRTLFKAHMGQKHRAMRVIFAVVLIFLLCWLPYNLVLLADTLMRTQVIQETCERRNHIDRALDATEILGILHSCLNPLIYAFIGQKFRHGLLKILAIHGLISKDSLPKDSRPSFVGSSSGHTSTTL

`CCOc1c(Cl)cc(C(=O)Nc2ccc(C(=O)O)c(C)c2)cc1OC(C)C`: the Activity result in data set [1] is “Non-Toxic”; in data set [2] it was less than 25%; in data set [3] it was less than 25%; in data set [4], less than 25%; in data set [5] it was less than 25%; in data set [6], less than 25%. For the same molecule, the Activity in [7], in data set [8], in data set [9], in data set [10], in data set [11] and in data set [12] was less than 25% throughout. Besides, the Activity in data set [13], in data set [14], in [15], in data set [16], in data set [17] and in [19] was less than 25% throughout. Moreover, the activity at 1 h, 10 µM in [18] was no more than 25%.
